{
  "source": "paper PMC9609924",
  "about": "“In Vitro Characterization of Inhibitors for Lung A549 and Leukemia K562 Cell Lines from Fungal Transformation of Arecoline Supported by In Silico Docking to M3-mAChR and ADME Prediction” (Pharmaceuticals, 2022)",
  "key": {"[1]": {"system": "non-small-cell lung cancer A549 cell line", "experiment": "cells", "conditions": "Homo sapiens, A549, 48 h, read-out: Cytotoxicity IC50 ± SD, Non-Small-Cell Lung Cancer A549", "procedure": "(§1) Cell lines were obtained from the American Type Culture Collection (ATCC). Cells were cultured using Dulbecco’s Modified Eagle’s Medium (DMEM) (Invitrogen/Life Technologies, Waltham, MA, USA) supplemented with 10% fetal bovine serum (FBS, Hyclone, Logan, UT, USA), 10 µg/mL of insulin (Sigma Aldrich, St. Louis, MO, USA) and 1% mixture of penicillin and streptomycin. After incubation for 48 h with the isolated compounds, the viability of cells was measured using an MTT assay to determine the toxic concentration for each compound using the microplate reader according to the published procedures."}, "[2]": {"system": "leukemia K562 cell line", "experiment": "MTT cytotoxicity assay, leukemia K562", "conditions": "Homo sapiens, K562, 48 h, read-out: Cytotoxicity IC50 ± SD, Leukemia Cancer Cell K562", "procedure": "as §1"}, "[3]": {"system": "normal lung cell WI38", "experiment": "MTT cytotoxicity assay, normal lung cell WI38", "format": "cell-based", "conditions": "for IC50: Homo sapiens, read-out: Normal Lung Cell Line WI38 IC50 ± SD", "procedure": "(§2) The selectivity index identifies the selectivity of the tested compounds toward the cancer cell line and is calculated by dividing the IC50 against the normal cell line by the IC50 against the cancer cells."}, "[4]": {"system": "normal blood cell PCS-800-016", "experiment": "MTT cytotoxicity assay, normal blood cell PCS-800-016", "format": "cell-based", "conditions": "for IC50: read-out: Normal Blood Cell PCS-800-016 IC50 ± SD", "procedure": "as §2"}, "[5]": {"system": "leukemia cancer K562 cells", "experiment": "Flow cytometry of DNA content, cell cycle distribution, K562", "format": "cell-based, human", "conditions": "for %Pre-G1 (sub-G1) cells, cell cycle distribution: untreated control 1.68%; for %G2/M cells, cell cycle distribution: untreated control 12.59%; for %S cells, cell cycle distribution: untreated control 42.57%; for %G0-G1 cells, cell cycle distribution: untreated control 44.84%", "procedure": "(§3) For cell cycle analysis, a propidium iodide flow cytometry kit (ab139418, Abcam, Cambridge, UK) was used. For apoptosis, we used an annexin V apoptosis kit, which is composed of annexin V-FITC (fluorescein isothiocyanate), 1X binding buffer, and propidium iodide. Detection was conducted by measuring DNA content using a flow cytometer."}, "[6]": {"system": "leukemia cancer K562 cells", "experiment": "Annexin V-FITC/propidium iodide apoptosis detection, K562", "format": "cell-based, human", "conditions": "for Late apoptosis: untreated control 0.04%; for Early apoptosis: untreated control 0.37%; for Necrosis: untreated control 1.27%; for Total cell death: untreated control 1.68%", "procedure": "as §3"}, "[7]": {"system": "non-small-cell lung cancer A549 cells", "experiment": "Flow cytometry of DNA content, cell cycle distribution, A549", "format": "cell-based", "procedure": "(§4) Furthermore, compound 1 induced early and late apoptosis and necrosis (5.09%, 10.38%, and 13.14%, respectively) compared to the untreated cells (0.29%, 0.18%, and 0.79, respectively).\nas §3"}, "[8]": {"system": "non-small-cell lung cancer A549 cells", "experiment": "Annexin V-FITC/propidium iodide apoptosis detection, A549", "format": "cell-based", "procedure": "as §4, §3"}},
  "note": "Where a name gives a salt, the structure may show the parent alone. Read-outs that look alike come from different tables or passages of the source.",
  "data": [
    {"smiles": "CN1CCC=C(C(=O)O)C1", "note": "[Compound 4, 1-Methyl-1,2,5,6-tetrahydropyridine-3-carboxylic acid]", "values": [
      {"measurement": "IC50", "setting": "[1]", "value": "90.9 ± 0.59", "unit": "µM"},
      {"measurement": "IC50", "setting": "[2]", "value": "67.3 ± 0.53", "unit": "µM"}
    ]},
    {"smiles": "COC(=O)C1=CCCN(C)C1", "note": "[Arecoline hydrobromide, reference compound]", "values": [
      {"measurement": "IC50", "setting": "[1]", "value": "11.7 ± 0.71", "unit": "µM"},
      {"measurement": "IC50", "setting": "[2]", "value": "15.3 ± 1.08", "unit": "µM"}
    ]},
    {"smiles": "COc1cccc2c1C(=O)c1c(O)c3c(c(O)c1C2=O)C[C@@](O)(C(=O)CO)C[C@@H]3O[C@H]1C[C@H](N)[C@H](O)[C@H](C)O1", "note": "[Doxorubicin, reference compound]", "values": [
      {"measurement": "IC50", "setting": "[1]", "value": "5.05 ± 0.13", "unit": "µM"},
      {"measurement": "IC50", "setting": "[2]", "value": "6.94 ± 0.21", "unit": "µM"}
    ]},
    {"smiles": "C[N+]1([O-])CCC(O)CC1", "note": "(stereo not drawn) [Compound 2, 4-Hydroxy-1-methylpiperidine 1-oxide]", "values": [
      {"measurement": "IC50", "setting": "[1]", "value": "> 100", "unit": "µM"},
      {"measurement": "IC50", "setting": "[2]", "value": "> 100", "unit": "µM"}
    ]},
    {"smiles": "CN[C@@H]1C[C@H]2O[C@@](C)([C@@H]1OC)n1c3ccccc3c3c4c(c5c6ccccc6n2c5c31)C(=O)NC4", "note": "[Staurosporine, reference compound]", "values": [
      {"measurement": "IC50", "setting": "[2]", "value": "5.07 ± 0.36", "unit": "µM"}
    ]},
    {"smiles": "O=C(O)C1CCCNC1", "note": "[Compound 3, D-piperidine-3-carboxylic acid]", "values": [
      {"measurement": "IC50", "setting": "[1]", "value": "7.33 ± 0.45", "unit": "µM"},
      {"measurement": "IC50", "setting": "[2]", "value": "3.33 ± 0.24", "unit": "µM"},
      {"measurement": "IC50", "setting": "[3]; WI-38, 48 h", "value": "26.6 ± 1.33", "unit": "µM"},
      {"measurement": "IC50", "setting": "[4]; 48 h", "value": "37.9 ± 1.89", "unit": "µM"},
      {"measurement": "Phase of cell cycle arrest", "setting": "[5]", "value": "S phase"},
      {"measurement": "%Pre-G1 (sub-G1) cells, cell cycle distribution", "setting": "[5]", "value": 43.22, "unit": "%"},
      {"measurement": "%G2/M cells, cell cycle distribution", "setting": "[5]", "value": 7.48, "unit": "%"},
      {"measurement": "%S cells, cell cycle distribution", "setting": "[5]", "value": 57.23, "unit": "%"},
      {"measurement": "%G0-G1 cells, cell cycle distribution", "setting": "[5]", "value": 35.29, "unit": "%"},
      {"measurement": "Late apoptosis", "setting": "[6]", "value": 30.35, "unit": "%"},
      {"measurement": "Early apoptosis", "setting": "[6]", "value": 2.33, "unit": "%"},
      {"measurement": "Necrosis", "setting": "[6]", "value": 10.54, "unit": "%"},
      {"measurement": "Total cell death", "setting": "[6]", "value": 43.22, "unit": "%"}
    ]},
    {"smiles": "CN1CCC(O)CC1", "note": "[Compound 1, 1-Methylpiperidin-4-ol]", "values": [
      {"measurement": "IC50", "setting": "[1]", "value": "3.08 ± 0.19", "unit": "µM"},
      {"measurement": "IC50", "setting": "[2]", "value": "1.56 ± 0.11", "unit": "µM"},
      {"measurement": "IC50", "setting": "[3]; WI-38, MTT, 48 h incubation", "value": "18.3 ± 0.91", "unit": "µM"},
      {"measurement": "SI (Lung), selectivity index", "setting": "[3]; IC50 against normal WI38 divided by IC50 against A549", "value": 5.93},
      {"measurement": "SI (Blood Cell), selectivity index", "setting": "[4]; IC50 against normal PCS-800-016 divided by IC50 against K562", "value": 6.32},
      {"measurement": "IC50", "setting": "[4]; MTT, 48 h incubation", "value": "9.87 ± 0.49", "unit": "µM"},
      {"measurement": "Phase of cell cycle arrest", "setting": "[7]", "value": "G2/M phase"},
      {"measurement": "%Pre-G1 (sub-G1) cells, cell cycle distribution", "setting": "[7]; untreated control 1.26%", "value": 28.61, "unit": "%"},
      {"measurement": "%G2/M cells, cell cycle distribution", "setting": "[7]; untreated control 8.09%", "value": 24.88, "unit": "%"},
      {"measurement": "%S cells, cell cycle distribution", "setting": "[7]; untreated control 35.85%", "value": 31.01, "unit": "%"},
      {"measurement": "%G0-G1 cells, cell cycle distribution", "setting": "[7]; untreated control 56.06%", "value": 44.11, "unit": "%"},
      {"measurement": "Fold increase of early apoptosis than control", "setting": "[8]; A549, versus untreated cells", "value": 17.55, "unit": "fold"},
      {"measurement": "Fold increase of late apoptosis than control", "setting": "[8]; A549, versus untreated cells", "value": 57.67, "unit": "fold"},
      {"measurement": "Fold increase of necrosis than control", "setting": "[8]; A549, versus untreated cells", "value": 16.63, "unit": "fold"},
      {"measurement": "Fold increase of total cell death than control", "setting": "[8]; A549, versus untreated cells", "value": 22.71, "unit": "fold"},
      {"measurement": "Late apoptosis", "setting": "[8]; A549, untreated control 0.18%", "value": 10.38, "unit": "%"},
      {"measurement": "Early apoptosis", "setting": "[8]; A549, untreated control 0.29%", "value": 5.09, "unit": "%"},
      {"measurement": "Necrosis", "setting": "[8]; A549, untreated control 0.79%", "value": 13.14, "unit": "%"},
      {"measurement": "Total cell death", "setting": "[8]; A549, untreated control 1.26%", "value": 28.61, "unit": "%"}
    ]},
    {"smiles": "O=C(O)c1cccnc1", "note": "[Compound 5, Pyridine-3-carboxylic acid]", "values": [
      {"measurement": "IC50", "setting": "[1]", "value": "3.29 ± 0.2", "unit": "µM"},
      {"measurement": "IC50", "setting": "[2]", "value": "2.15 ± 0.15", "unit": "µM"},
      {"measurement": "IC50", "setting": "[3]; WI-38, MTT, 48 h incubation", "value": "13.9 ± 0.69", "unit": "µM"},
      {"measurement": "IC50", "setting": "[4]; MTT, 48 h incubation", "value": "20.2 ± 1.01", "unit": "µM"},
      {"measurement": "Phase of cell cycle arrest", "setting": "[5]", "value": "S phase"},
      {"measurement": "%Pre-G1 (sub-G1) cells, cell cycle distribution", "setting": "[5]", "value": 31.74, "unit": "%"},
      {"measurement": "%G2/M cells, cell cycle distribution", "setting": "[5]", "value": 10.68, "unit": "%"},
      {"measurement": "%S cells, cell cycle distribution", "setting": "[5]", "value": 52.91, "unit": "%"},
      {"measurement": "%G0-G1 cells, cell cycle distribution", "setting": "[5]", "value": 36.41, "unit": "%"},
      {"measurement": "Late apoptosis", "setting": "[6]", "value": 11.74, "unit": "%"},
      {"measurement": "Early apoptosis", "setting": "[6]", "value": 2.94, "unit": "%"},
      {"measurement": "Necrosis", "setting": "[6]", "value": 17.06, "unit": "%"},
      {"measurement": "Total cell death", "setting": "[6]", "value": 31.74, "unit": "%"}
    ]}
  ]
}
